For nine compounds, TGI and GI50 results are on record in PubChem BioAssay (NCI).

“And” between values parts separate entries of the source, which are not always exact repeats. Identical values can stand only once.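 Following 48 hours of exposure in 96-well plates, responses at five concentrations were used to interpolate endpoints linearly. At the GI50, growth is halved. TGI is the concentration that stops growth completely.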

What all share (experiment): growth of human tumour cells (NCI), 48 h
For test [1], the system named is SK-MEL-28 melanoma.
Test [2] concerns SF-295 CNS.
The subject of test [3] is NCI-H460 lung.
The test system of test [4] is BT-549 breast.
Test [5] deals with MALME-3M melanoma.
Test [6] deals with M14 melanoma.
For test [7], the system named is OVCAR-8 ovarian.
The subject of test [8] is HOP-62 NSCLC.
In test [9] the test system is UO-31 renal.
For test [10], the system named is A498 renal.

Take `C#CCn1c(I)cc2c(c1=O)COC(=O)[C@]2(O)CC`: the TGI in test [1], in test [2], in test [3], in [4], in test [5] and in [6] was over 100 µM throughout. Also, the TGI in test [7], in test [8], in test [9] and in test [10] was over 100 µM in each case.

As for `CCOP(=O)(OCC)C(c1ccccc1)N(C(=O)NC(F)(F)F)c1ccc(C)cc1` (stereo not drawn), the TGI in test [1], in [2], in [3], in [4], in test [5] and in test [6] was over 100 µM in each case. Moreover, the TGI in [7], in test [8], in test [9] and in test [10] was over 100 µM throughout.

As to `CC(C)=CC(=O)OC1C2C(C)=CC(=O)C(O)C2(C)C2C3(O)OCC24C(CC(=O)OC14)C(C)C3O` (stereo not drawn), the GI50 in test [1] was 0.02 µM; in test [2] it was 0.0126 µM; in test [3], 0.00788 µM; in test [5], 0.00475 µM; in test [7], 0.0251 µM; in [8], 0.0315 µM. Moreover, the GI50 in test [9] was 0.829 µM; in [10], 0.142 µM. Further, the TGI in test [1] was 0.0175 µM and 0.0363 µM; in test [2], 0.154 µM and 0.0672 µM and 0.0966 µM; in [3], 0.0298 µM and 0.0334 µM; in test [4], 0.00846 µM; in [5] it was 0.0136 µM; in [6], 0.00826 µM. Moreover, the TGI in [7] is 0.125 µM and 0.0247 µM and 0.0683 µM; in [8] it was 0.0504 µM and 0.0103 µM and 0.0948 µM; in test [9] it was 0.545 µM and 4.78 µM and 1.03 µM; in test [10], 0.288 µM and 0.511 µM.

For `COC1(C)CCC(OS(C)(=O)=O)CO1` (stereo not drawn), the TGI in test [1], in test [2], in [3], in test [4], in [5] and in test [6] was over 100 µM in each case. Besides, the TGI in test [7], in test [8], in test [9] and in [10] was over 100 µM each time.

For the compound `CN(C)Cc1cc(/C=C/C(=O)c2ccc(Br)cc2)cc(CN(C)C)c1O`, the TGI is 34.9 µM in test [1]; 38.7 µM in test [2]; 42.6 µM in test [3]; 34.4 µM in test [4]; 31.6 µM in [5]; over 100 µM in [6]. Besides, the TGI was over 100 µM in [7], over 100 µM in test [8], 23.2 µM in test [9] and 27.7 µM in test [10].

For the compound `CC(C)(C)OC(=O)NCC(c1c[nH]c2ccccc12)c1c[nH]c2ccccc12`, the TGI stood at 35.3 µM in test [1]; 32.8 µM in test [2]; 30.1 µM in test [3]; 35.1 µM in test [4]; 33.2 µM in test [5]; 29.1 µM in test [6]. For the same compound, the TGI in test [7] is 34.4 µM; in test [8], 37 µM; in [9] it was 27.4 µM; in test [10] it was over 100 µM.

Take `Cc1cc2ccccc2oc(=O)/c1=N\Nc1ccccc1`: the TGI in test [1], in test [2], in [3], in test [4], in test [5] and in [6] was over 100 µM each time. Further, the TGI in test [7] was over 100 µM; in test [8], 46.7 µM; in test [9], over 100 µM; in test [10], over 100 µM.

Consider `O=C(NNC(=O)c1ccncc1)C(=O)Nc1cc(Cl)c(Cl)cc1Cl`, for which the TGI in [1], in [2], in test [3], in test [4], in test [5] and in [6] was over 100 µM throughout. Also, the TGI in test [7], in test [8], in test [9] and in test [10] was over 100 µM throughout.

Turning to `C[C@]12CC[C@H]3[C@@H](CC=C4C[C@@H](O)CC[C@@]43C)[C@@H]1C/C(=C\c1ccc([N+](=O)[O-])cc1)[C@@H]2O`, the TGI in test [1] is 57.6 µM; in [2] it was 46.5 µM; in [3], 72.9 µM; in [4], 38 µM; in [5], 53 µM; in [6] it was over 100 µM. The TGI came out at 36.9 µM in test [7], 27.7 µM in test [8], 24.4 µM in [9] and 42.4 µM in test [10].
